# Reference: patent US12492181B2, “Gem-disubstituted piperidine melanocortin subtype-2 receptor (MC2R) antagonists and uses thereof” (Crinetics Pharmaceuticals, Inc., priority 2019, dated 2025)
# Biological target: T1, hMC2 receptor (crude hMC2R membranes from CRE-bla-CHO-K1 cells stably expressing hMC2 receptor and hMRAP accessory protein) (Homo sapiens, UniProt Q01718)
# T1 construct: crude membrane fractions
# Assay: hMC2 membrane binding assay ([125I]ACTH (1-39) Tyr23, SPA)
# Conditions: displacement of 0.2 nM [125I]ACTH (1-39) Tyr23 from hMC2R membranes, 1.5 hours at room temperature; read-out: MC2R binding potency
# Outline: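 Ki values come from non-linear regression of SPA scintillation counts, with compounds displacing [125I]ACTH(1-39) Tyr23. Membranes come from CRE-bla-CHO-K1 cells stably expressing hMC2 receptor together with hMRAP. They are preincubated with WGA-coated PVT SPA beads in 50 mM HEPES pH 7.4 with 0.20% BSA, Mg2+, Ca2+ and protease inhibitors.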
# T1 sequence (Q01718 whole entry): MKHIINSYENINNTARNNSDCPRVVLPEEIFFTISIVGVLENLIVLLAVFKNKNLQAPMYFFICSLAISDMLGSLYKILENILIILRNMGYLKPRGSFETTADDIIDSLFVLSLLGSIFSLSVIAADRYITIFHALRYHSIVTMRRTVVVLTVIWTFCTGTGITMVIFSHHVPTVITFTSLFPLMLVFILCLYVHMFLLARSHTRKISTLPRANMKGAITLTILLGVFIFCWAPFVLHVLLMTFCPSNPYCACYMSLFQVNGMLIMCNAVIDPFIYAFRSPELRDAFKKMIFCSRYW
# T1 sequence (Q8TCY5 whole entry partner): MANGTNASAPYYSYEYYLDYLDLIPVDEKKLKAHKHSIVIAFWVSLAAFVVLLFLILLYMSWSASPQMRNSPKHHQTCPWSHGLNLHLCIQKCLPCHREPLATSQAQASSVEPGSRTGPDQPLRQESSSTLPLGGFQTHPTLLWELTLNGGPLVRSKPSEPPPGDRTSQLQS
row,Structure (SMILES),Ki [nM]
1,"CCOc1ncccc1-c1ccc(C2(C(=O)NCCNC)CCN(c3ccc(C(F)(F)F)cc3C#N)CC2)cc1 [Compound 1-7, 1-[2-cyano-4-(trifluoromethyl)phenyl]-4-[4-(2-ethoxypyridin-3-yl)phenyl]-N-[2-(methylamino)ethyl]piperidine-4-carboxamide]",< 10
2,"CN1CC[C@@H](NC(=O)C2(c3ccc(-c4ccccc4OC(F)(F)F)nc3)CCN(c3ccc(C(F)(F)F)cc3C#N)CC2)C1 [Compound 1-71, 1-[2-cyano-4-(trifluoromethyl)phenyl]-N-[(3R)-1-methylpyrrolidin-3-yl]-4-{6-[2-(trifluoromethoxy)phenyl]pyridin-3-yl}piperidine-4-carboxamide]",< 10
3,"CCOc1ncccc1-c1ccc(C2(C(=O)NC3CN(C)CC3O)CCN(c3ccc(C(F)(F)F)cc3C#N)CC2)cn1 (single isomer, unassigned) [Compound 1-46, 1-[2-cyano-4-(trifluoromethyl)phenyl]-4-{2′-ethoxy-[2,3′-bipyridin]-5-yl}-N-[(3R,4R)*-4-hydroxy-1-methylpyrrolidin-3-yl]piperidine-4-carboxamide]",< 10
4,"Cc1occc1-c1ccc(C2(C(=O)N[C@@H]3CCN(C)C3)CCN(c3ccc(C(F)(F)F)cc3C#N)CC2)cn1 [Compound 1-116, 1-[2-cyano-4-(trifluoromethyl)phenyl]-4-[6-(2-methylfuran-3-yl)pyridin-3-yl]-N-[(3R)-1-methylpyrrolidin-3-yl]piperidine-4-carboxamide]",< 10
5,"CCOc1ncccc1-c1ncc(C2(C(=O)N[C@H]3CCN(C)C3)CCN(c3ccc(C(F)(F)F)cc3Cl)CC2)cc1F [Compound 1-203, 1-[2-chloro-4-(trifluoromethyl)phenyl]-4-{2′-ethoxy-3-fluoro-[2,3′-bipyridin]-5-yl}-N-[(3S)-1-methylpyrrolidin-3-yl]piperidine-4-carboxamide]",< 10
6,"CCOc1ccccc1-c1ccc(C2(C(=O)NCCN(C)C)CCN(c3ccc(C(F)(F)F)cc3F)CC2)cn1 [Compound 1-226, N-[2-(dimethylamino)ethyl]-4-[6-(2-ethoxyphenyl)pyridin-3-yl]-1-[2-fluoro-4-(trifluoromethyl)phenyl]piperidine-4-carboxamide]",< 10
7,"CCOc1ccccc1-c1ccc(C2(C(=O)NC3CN(C)C3)CCN(c3ccc(C(F)(F)F)cc3C#N)CC2)cn1 [Compound 1-76, 1-[2-cyano-4-(trifluoromethyl)phenyl]-4-[6-(2-ethoxyphenyl)pyridin-3-yl]-N-(1-methylazetidin-3-yl)piperidine-4-carboxamide]",< 10
8,"Cn1cccc1-c1ccc(C2(C(=O)N[C@H]3C[C@H](N(C)C)C3)CCN(c3ccc(C(F)(F)F)cc3C#N)CC2)cn1 [Compound 1-240, 1-[2-cyano-4-(trifluoromethyl)phenyl]-4-[6-(1-methyl-1H-pyrrol-2-yl)pyridin-3-yl]-N-[(1R,3R)-3-(dimethylamino)cyclobutyl]piperidine-4-carboxamide]",10 to 100
9,"COc1ccccc1-c1ncc(C2(C(=O)NCCN(C)C)CCN(c3ccc(C(F)(F)F)cc3C#N)CC2)cc1F [Compound 1-198, 1-[2-cyano-4-(trifluoromethyl)phenyl]-N-[2-(dimethylamino)ethyl]-4-[5-fluoro-6-(2-methoxyphenyl)pyridin-3-yl]piperidine-4-carboxamide]",< 10
10,"COc1ccccc1-c1ccc(C2(C(=O)NC[C@@H]3CCN3C)CCN(c3ccc(C(F)(F)F)cc3C#N)CC2)cn1 [Compound 1-217, 1-[2-cyano-4-(trifluoromethyl)phenyl]-4-[6-(2-methoxyphenyl)pyridine-3-yl]-N-{[(2S)-1-methylazetidin-2-yl]methyl}piperidine-4-carboxamide]",< 10
11,"COc1ccccc1-c1ccc(C2(C(=O)NCCN(C)C)CCN(c3ccc(C(F)(F)F)cc3C#N)CC2)cn1 [Compound 1-212, 1-[2-cyano-4-(trifluoromethyl)phenyl]-N-[2-(dimethylamino)ethyl]-4-[6-(2-methoxyphenyl)pyridin-3-yl]piperidine-4-carboxamide]",< 10
12,"COc1ccccc1-c1ccc(C2(C(=O)N[C@H]3CCN(C)C3)CCN(c3ccc(C(F)(F)F)cc3C#N)CC2)cn1 [Compound 1-166, 1-[2-cyano-4-(trifluoromethyl)phenyl]-4-[6-(2-methoxyphenyl)pyridin-3-yl]-N-[(3S)-1-methylpyrrolidin-3-yl]piperidine-4-carboxamide]",< 10
13,"CCCc1ccccc1-c1ccc(C2(C(=O)N[C@@H]3CCN(C)C3)CCN(c3ccc(C(F)(F)F)cc3C#N)CC2)cn1 [Compound 1-117, 1-[2-cyano-4-(trifluoromethyl)phenyl]-N-[(3R)-1-methylpyrrolidin-3-yl]-4-[6-(2-propylphenyl)pyridin-3-yl]piperidine-4-carboxamide]",< 10
14,"COc1ncccc1-c1ncc(C2(C(=O)N[C@H]3CCN(C)C3)CCN(c3ccc(C(F)(F)F)cc3C#N)CC2)cc1F [Compound 1-132, 1-[2-cyano-4-(trifluoromethyl)phenyl]-4-{3-fluoro-2′-methoxy-[2,3′-bipyridin]-5-yl}-N-[(3S)-1-methylpyrrolidin-3-yl]piperidine-4-carboxamide]",< 10
15,"COc1ccsc1-c1ccc(C2(C(=O)N[C@@H]3CCN(C)C3)CCN(c3ccc(C(F)(F)F)cc3C#N)CC2)cn1 [Compound 1-80, 1-[2-cyano-4-(trifluoromethyl)phenyl]-4-[6-(3-methoxythiophen-2-yl)pyridin-3-yl]-N-[(3R)-1-methylpyrrolidin-3-yl]piperidine-4-carboxamide]",< 10
16,"COc1ccccc1-c1ccc(C2(C(=O)N[C@@H]3CNC[C@H]3F)CCN(c3ccc(C(F)(F)F)cc3C#N)CC2)cn1 [Compound 1-238, 1-[2-cyano-4-(trifluoromethyl)phenyl]-N-[(3R,4R)-4-fluoropyrrolidin-3-yl]-4-[6-(2-methoxyphenyl)pyridin-3-yl]piperidine-4-carboxamide]",< 10
17,"CCOc1ncccc1-c1ncc(C2(C(=O)N[C@H]3CCN(C)C3)CCN(c3ccc(C(F)(F)F)cc3C#N)CC2)cn1 [Compound 1-106, 1-[2-cyano-4-(trifluoromethyl)phenyl]-4-[2-(2-ethoxypyridin-3-yl)pyrimidin-5-yl]-N-[(3S)-1-methylpyrrolidin-3-yl]piperidine-4-carboxamide]",< 10

# Results, then the compound that gave them:
row,Ki [nM],Structure (SMILES)
1,< 10,"CNC[C@H](C)NC(=O)C1(c2ccc(-c3cccnc3OC)nc2)CCN(c2ccc(C(F)(F)F)cc2Cl)CC1 [Compound 1-307, 1-[2-chloro-4-(trifluoromethyl)phenyl]-4-{2′-methoxy-[2,3′-bipyridin]-5-yl}-N-[(2S)-1-(methylamino)propan-2-yl]piperidine-4-carboxamide]"
2,< 10,"CNCCNC(=O)C1(c2cnc(-c3cccn3C)c(F)c2)CCN(c2ccc(C(F)(F)F)cc2Cl)CC1 [Compound 1-310, 1-[2-chloro-4-(trifluoromethyl)phenyl]-4-[5-fluoro-6-(1-methyl-1H-pyrrol-2-yl)pyridin-3-yl]-N-[2-(methylamino)ethyl]piperidine-4-carboxamide]"
3,< 10,"CCOc1ccccc1-c1ncc(C2(C(=O)NCCN(C)C)CCN(c3ccc(C(F)(F)F)cc3F)CC2)cc1F [Compound 1-289, N-[2-(dimethylamino)ethyl]-4-[6-(2-ethoxyphenyl)-5-fluoropyridin-3-yl]-1-[2-fluoro-4-(trifluoromethyl)phenyl]piperidine-4-carboxamide]"
4,< 10,"CCOc1ncccc1-c1ccc(C2(NC(=O)[C@@H]3CCNC3)CCN(c3ccc(C(F)(F)F)cc3C#N)CC2)cn1 [Compound 2-6, (3R)—N-{1-[2-cyano-4-(trifluoromethyl)phenyl]-4-{2′-ethoxy-[2,3′-bipyridin]-5-yl}piperidin-4-yl}pyrrolidine-3-carboxamide]"
5,< 10,"COc1ccccc1-c1ccc(C2(NC(=O)NCCN(C)C)CCN(c3ccc(C(F)(F)F)cc3C#N)CC2)cn1 [Compound 2-58, 1-{1-[2-cyano-4-(trifluoromethyl)phenyl]-4-[6-(2-methoxyphenyl)pyridin-3-yl]piperidin-4-yl}-3-[2-(dimethylamino)ethyl]urea]"
6,< 10,"CCOc1ncccc1-c1ncc(C2(C(=O)N[C@@H](C)CNC)CCN(c3ccc(Cl)cc3C#N)CC2)cc1F [Compound 1-323, 1-(4-chloro-2-cyanophenyl)-4-{2′-ethoxy-3-fluoro-[2,3′-bipyridin]-5-yl}-N-[(2S)-1-(methylamino)propan-2-yl]piperidine-4-carboxamide]"
7,10 to 100,"CCOc1ncccc1-c1ccc(C2(NC(=O)O[C@@H]3CCN(C)C3)CCN(c3ccc(C(F)(F)F)cc3C#N)CC2)cc1 [Compound 2-12, (3R)-1-methylpyrrolidin-3-yl N-{1-[2-cyano-4-(trifluoromethyl)phenyl]-4-[4-(2-ethoxypyridin-3-yl)phenyl]piperidin-4-yl}carbamate]"
8,< 10,"CCOc1ncccc1-c1ccc(C2(NC(=O)[C@@H]3CCN(C)C3)CCN(c3ccc(C(F)(F)F)cc3C#N)CC2)cn1 [Compound 2-7, (3R)—N-{1-[2-cyano-4-(trifluoromethyl)phenyl]-4-{2′-ethoxy-[2,3′-bipyridin]-5-yl}piperidin-4-yl}-1-methylpyrrolidine-3-carboxamidev]"
9,< 10,"CCOc1ncccc1-c1ccc(C2(NC(=O)CN(C)C)CCN(c3ccc(C(F)(F)F)cc3C#N)CC2)cn1 [Compound 2-26, N-{1-[2-cyano-4-(trifluoromethyl)phenyl]-4-{2′-ethoxy-[2,3′-bipyridin]-5-yl}piperidin-4-yl}-2-(dimethylamino)acetamide]"
10,< 10,"COc1ncccc1-c1ncc(C2(C(=O)NCCN(C)C)CCN(c3ccc(C(F)(F)F)cc3Cl)CC2)cc1F [Compound 1-302, 1-[2-chloro-4-(trifluoromethyl)phenyl]-N-[2-(dimethylamino)ethyl]-4-{3-fluoro-2′-methoxy-[2,3′-bipyridin]-5-yl}piperidine-4-carboxamide]"
